In US8591908B2, “Immunogen for preparation of therapeutic vaccines or drugs for treatment of hepatitis B and the producing method and use thereof” (Institute of Immunology, PLA, priority 2002, dated 2013):
Ends that are not written are not given here. * marks the point of attachment. Palmitoyl = CCCCCCCCCCCCCCCC(=O)*

How the values were obtained:
[1] = Overall functional screening of tri-epitope molecules
Text: The designed immunogens are synthesized by chemical synthesis methods. Firstly, the most probable structures according to the computer alignment and in theory are synthesized, and then functionally screened in vitro. The screening in vitro comprises: inducing the Th1 activation of peripheral blood mononuclear cells, inducing the HBV-specific CTL, inhibiting HBsAg and HBeAg on HepG2.2.1.5 cells with polypeptide antigen-specific CTL, etc. The designed structures are optimized, improved and synthesized in the next cycle bused on the results of functional tests in vitro. The structures selected out in the in vitro tests are further screened in in vivo tests, the screening comprising: inducing the Th1 activation in Balb/C mice, inhibiting virus replication in HBV transgenic mice, conducting acute toxicity tests in mice, etc. […] Among tri-epitope molecules of different epitope combinations, εPA44 achieves the best effect (see Table 4). The in vivo and in vitro tests indicate that the convalent modification by palmitic acid gives better effects among various chemical modifications.

[2] = system: T2 cells, E6 cells, and HepG2.2.15 cells; test: HBV-specific effective CTL from hepatitis patients' PBMC, cytotoxicity; format: cell-based, human
Procedure: Acute and chronic hepatitis blank control groups, acute hepatitis+test drug group and chronic hepatitis+test drug group were included. The PBMC's from the patients were cultured in vitro and stimulated repetitively to generate antigen-specific effective CTL cells and amplified their number. Then they were used to cytotoxically kill peptide antigen pre-coated T2 cells, E6 cells, and HepG2.2.15 cells.

[3] = Solubility in different solution systems; format: physicochemical
Text: (§1) εPA44 was soluble and stable in DMSO, but poorly soluble and stable in other solutions (see Table 5). Thus, DMSO was used as the mobile phase for SEC.

[4] = pI stated in the formulation description; format: physicochemical; conditions: stated without method in formulation example 39
[5] = Stability in different solution systems (RP-HPLC); format: physicochemical
Text: as §1

[6] = system: HBV DNA in HBV transgenic mice; test: HBV transgenic mice: HBV DNA in serum, quantitative PCR; format: in vivo; conditions: 10th, 20th, 30th day after three immunizations, 10-1000 U/mouse
Procedure: (§2) The levels of cytokines such as IFN-γ, IL-4, etc. in supernatant were measured by the ELISA method, and the activity of the test drug (CH3(CH2)14COKSSQYIKANSKFIGITEAAASIVSPFIPLLGGGDPRVRGLYFPA) (SEQ ID NO:5) for inducing the differentiation of T cells into Th1/Th2 type was analyzed. […] The expression frequency of IFN-γ secreting cells in peripheral blood lymphocytes was measured by the ELI-SPOT method in said supernatant. […] On the 10th, 20th and 30th day after the end of the three immunizations, bloods were removed, serum isolated, and the contents of HBsAg and HBV-DNA in the serum were separately measured by the ELISA method and quantitative PCR method.

[7] = system: Balb/c mice; test: Neutralizing antibodies, double-antibody-sandwich and competitive inhibition test; format: in vivo
Procedure: Balb/c mice of 2-3 Months old (both male and female) were divided into 8 groups […], and were immunized with εPA44 at both postpede palmas once a week for three times at different doses: 0.001 nmol, 0.01 nmol, 0.1 nmol, 0.5 nmol, 1 nmol, 10 nmol, 20 nmol respectively, 3 weeks after the immunization, the mice were bled by removing their eyeballs and serums were collected. Antibodies were tested by the double-antibody-sandwich method. The specificity was tested by antibody competitive inhibition test using of the 10 world wide available monoclonal antibodies.

[8] = system: HBV-DNA transgenic mice; test: HBV transgenic mice: cytokines of spleen lymphocytes, ELISA (Th1/Th2); format: in vivo; conditions: 10, 100, 1000 U/mouse s.c., day 30; spleen lymphocytes restimulated with 10 ng/ml for 3 days
Procedure: as §2
Then supernatants were collected and the secretion levels of cytokines such as TNF-α, IFN-γ, IL-4, etc. in supernatants were measured by ELISA, and the activity of the test drug for inducing the conversion of Th1/Th2 type from T cells in subjects was analyzed.

[9] = system: hepatitis B surface antigen (HBsAg) in HBV transgenic mice; test: HBV transgenic mice: HBsAg in serum, ELISA; format: in vivo; conditions: 10th, 20th, 30th day after three immunizations, 10-1000 U/mouse
Procedure: as §2

[10] = Isoelectric point, ampholyte pH gradient isoelectric focusing; format: physicochemical; conditions: 8N urea, TritonX-114
Procedure: Supported ampholyte pH gradient isoelectric focusing was employed. Pretreatment: 8N urea and 2% TritonX-114. Urea at the corresponding concentration and 0.5% TritonX-114 were also added to polyacrylamide gel. Conventional Coomassie brilliant blue was used for dyeing.

[11] = system: human peripheral blood mononuclear cells (PBMCs); test: Proliferation of human PBMCs from normal persons, 3H-TdR; format: cell-based; conditions: 0.1 μg, 1 μg and 10 μg/ml with IL-2
Procedure: Anticoagulant peripheral blood was collected from normal persons under sterile conditions, PBMCs were isolated by conventional Ficoll-Hypaque density gradient centrifugation and were cultured in RPMI1640 culture media (containing 10% calf serum, 100 u/ml penicillin-streptomycin, L-glutamine) in vitro on 24-well culture plates at the cell concentration of 10^6/ml. Blank control group, test group and Pre-S(2) control group were included, to which IL-2 (30 IU/ml) and test drug (0.1 μg/ml, 1 μg/ml, 10 μg/ml) were added. After the cells were cultured for 6 days, IL-2 and the test drug were added at the same dose to stimulate the cells again, and then 3H-TdR (1 uCi/ml) was added. After the cells were further cultured for 18 hours, they were collected and tested by liquid scintillation.

[12] = 50% Ethanol-10 mmol/L phosphoric acid

K(Palmitoyl)SSQYIKANSKFIGITEAAAFLPSDFFPSVGGGDPRVRGLYFPA-OH [SEQ ID NO:1, CH3(CH2)14COKSSQYIKANSKFIGITEAAAFLPSDFFPSVGGGDPRVRGLYFPA]
effect among tri-epitope molecules of different epitope combinations [1]: best effect
target cell-specific lysis rate ([2]; PBMCs from acute hepatitis patient in convalescent phase): up to 68.6%
target cell-specific lysis rate ([2]; PBMCs from chronic hepatitis patient): up to 42.6%
specific killing of target cells ([2]; PBMCs of hepatitis patients): specifically kill aforesaid three target cell lines
solubility ([3]; 0.1 mol/L PB (pH 6.8)): 10 µg/mL
solubility ([3]; 2% Tween80-0.1 mol/L PB(pH 6.8)): 80 µg/mL
solubility ([3]; 50% Acetonitrile-0.1% TFA): 1670 µg/mL
solubility ([3]; 50% DMSO): 2530 µg/mL
solubility ([3]; 50% Ethanol-10 mmol/L HCl): 2480 µg/mL
solubility [3, 12]: 2430 µg/mL
solubility ([3]; 50% Methanol-0.1% TFA): 1540 µg/mL
solubility ([3]; DMSO): 11700 µg/mL
pI [4]: 8.1
Stability ([5]; 50% Acetonitrile-0.1% TFA): Unstable
Stability ([5]; 50% Ethanol-10 mmol/L HCl): Unstable
Stability [5, 12]: Unstable
Stability ([5]; DMSO): Stable*
HBV-DNA in the serum (copy number, replication level) [6]: obviously decreased in a manner of dose-dependence and time-dependence
specificity of induced antibodies ([7]; antibody competitive inhibition test with monoclonal antibodies): HBV neutralizing antibodies
dose inducing the generation of antibody ([7]; serum 3 weeks after immunization): 0.01 nmol
IL-4 secretion [8]: no obvious dose-effect dependence relation
secretion of IFN-γ [8]: stronger
HBsAg in the serum [9]: decreased in a manner of dose-dependence and time-dependence
isoelectric point [10]: 7.2 pH
proliferation of human PBMCs [11]: stimulated the proliferation of human PBMCs in a manner of dose dependence
